Data on 4 molecules can be found in patent publication US20230048132A1, “CYCLIN-DEPENDENT KINASE INHIBITORS” (SPV THERAPEUTICS INC., priority 2018, published 2023).

One data set has as its system MEXF WM-266-4. Briefly: 2D cell proliferation assay (CellTiter-Blue). The format is cell-based. As to conditions: Homo sapiens, 72 h, three days of treatment, read-out: abs. IC50. Here is the method:
(§1) Viability of the cells was analyzed by using the CellTiter-Blue® Cell Viability Assay (Promega), and was performed according to manufacturer's instructions. Briefly, cells were harvested from exponential phase cultures (Chapter 6.6), counted and plated in 96-well flat-bottom microtiter plates at a cell density of 4,000-60,000 cells/well in a volume of 140 μl per well. After a 24 hours recovery period, 10 μL cell culture medium (six control wells/plate) or culture medium with test compound were added (Chapter 6.2). The compounds were applied at five concentrations in full-log increments up to 100 μM in duplicate. Cultures were incubated at 37° C. and 5% CO2 in a humidified atmosphere for another three days. After three days of treatment, 20 μl/well CellTiter-Blue® reagent was added. Following incubation with CellTiter-Blue® reagent for up to four hours, fluorescence (FU) was measured by using the Enspire Multimode Plate Reader (excitation λ=570 nm, emission λ=600 nm). For calculations, the mean values of duplicate/sextuplicate (untreated control) data were used.
(§2) An assay was considered fully evaluable if the following quality control criteria were fulfilled: • control/background ratio>3.0-Z′-factor calculated within the assay plate>0.5 [7]—coefficient of variation in the growth control wells <30%
(§3) Drug effects were expressed in terms of the percentage of the fluorescence signal, obtained by comparison of the mean signal in the treated wells with the mean signal of the untreated controls (expressed by the test-versus-control value, T/C-value [%]):
(§4) IC values are reported as relative IC50 values and absolute IC50 and IC70 values. […] The absolute IC70 value gives the concentration of the test compound that achieves T/C=30%. The relative IC50 value is the concentration of test compound that gives a response halfway between the top and bottom plateau of the sigmoidal concentration-response curve (inflection point of the curve). Calculation was done by 4parameter non-linear curve fit (Oncotest Data Warehouse Software).
(§5) If an IC50 or IC70 value could not be determined within the examined dose range (because a compound was either too active or lacked activity), the lowest or highest concentration studied was used for calculation of the geometric mean value.

The subject of the next data set is LXFL NCl-H1299. The experiment in a line: 2D cell proliferation assay (CellTiter-Blue). As to conditions: 72 h, three days of treatment, read-out: abs. IC50. The format is cell-based. The method, then: as §1, §2, §3, §4, §5
In a further data set the test system is MAXFTN MDA-MB-231 (ER−). The experiment in a line: 2D cell proliferation assay (CellTiter-Blue). The format is cell-based. Particulars: Homo sapiens, 72 h, three days of treatment, read-out: abs. IC50. Here is the method: as §1, §2, §3, §4, §5
The next data set relates to MAXFLB MCF7 (ER+). The experiment in a line: 2D cell proliferation assay (CellTiter-Blue). The format is cell-based. As to conditions: Homo sapiens, 72 h, three days of treatment, read-out: abs. IC50. Here is the method: as §1, §2, §3, §4, §5
The next data set has as its system LEXFAL MOLT-4. Briefly: 2D cell proliferation assay (CellTiter-Blue). The format is cell-based. Particulars: Homo sapiens, 72 h, three days of treatment, read-out: abs. IC50. Here is the method: as §1, §2, §3, §4, §5
The next data set deals with MAXFTN ZR-75-1 (ER+). The experiment in a line: 2D cell proliferation assay (CellTiter-Blue). The format is cell-based. As to conditions: Homo sapiens, 72 h, three days of treatment, read-out: abs. IC50. Here is the method:
as §1, §2, §3, §4, §5

The next data set deals with LEXFAM MV4-11. Briefly: 2D cell proliferation assay (CellTiter-Blue). The format is cell-based. Particulars: Homo sapiens, 72 h, three days of treatment, read-out: abs. IC50. The method, then:
as §1, §2, §3, §4, §5

The test system of another data set is LXFA A549. Briefly: 2D cell proliferation assay (CellTiter-Blue). As to conditions: Homo sapiens, 72 h, three days of treatment, read-out: abs. IC50. The format is cell-based. The method, then:
as §1, §2, §3, §4, §5

For a further data set, the target named is T1, CDK6-CYCLIND3 (Homo sapiens, UniProt Q00534).
T1 construct: purchased Carna
The experiment in a line: CDK inhibition assay (microfluidic LabChip, IC50 format). The format is biochemical.

The target in the next data set is T2, CDK9-CYCLINT1 (Homo sapiens, UniProt P50750).
T2 construct: purchased Carna
The data set is described as above. The format is biochemical.

A further data set has as its target T3, CDK2-CYCLINE (Homo sapiens, UniProt P24941).
T3 construct: purchased Millipore
The description is as above. The format is biochemical. Particulars: Table 3; purified enantiomers; read-out: CDK2-E (E1/E2).

The next data set has as its system all cell lines tested. Briefly: 2D cell proliferation assay, geometric mean over the cell line panel. As to conditions: Table 5 lower part; geometric mean over the 8-line panel; read-out: Geomean abs. IC50 value. The format is cell-based. Here is the method:
as §1, §4, §5
The overall potency of a compound was determined by the geometric mean IC50/IC70 values of all individual IC50/IC70 values. In the heatmap representation of IC50 and IC70 values, the distribution of the IC50 or IC70 values obtained for a test compound in the individual cell lines is given in relation to the geometric mean IC50 or IC70 value, obtained over all PDX models tested. The individual IC values range from 1/32-fold geometric mean IC (corresponding to very potent compound activity or high tumor sensitivity) to 32-fold geometric mean IC (corresponding to lack of compound activity or tumor resistance). The heatmap presentation, therefore, represents an antiproliferative “fingerprint” profile of a test compound.

The target of the next data set is T4, CDK2-CYCLINA (Homo sapiens, UniProt P24941).
T4 construct: purchased Millipore
The experiment in a line: CDK inhibition assay (microfluidic LabChip, IC50 format). The format is biochemical.

For another data set, the target named is CDK4-CYCLIND1 (Homo sapiens, UniProt P11802). The data set is described as above.
Data set [1] in a line: Pharmacokinetics after IV bolus. The format is in vivo. Particulars: rat, plasma; rats; IV bolus 30 mg/kg; N = 3.
Description: (§6) Nonclinical pharmacokinetic (PK) parameters of lead CDK4/6/9 inhibitors were determined in an intravenous (IV) and oral study (p.o.) conducted in rats. Lead compounds were each administered as a single oral dose at 100 mg/kg or by IV bolus via the caudal vein at the dose of 30 mg/kg. Blood samples were collected at 0.25, 0.5, 1, 2, 4, 8, 12, and 24 hours post i.v. administration, and at 1, 2, 4, 8, 24 and 48 hours post oral administration. Plasma was processed for drug concentration analysis using a validated LCMS/MS method, and PK parameters were calculated by using WinNonlin.
Data set [2] can be described thus: Pharmacokinetics after oral administration. Particulars: rat, plasma, rats; for bioavailability: oral 100 mg/kg versus IV 30 mg/kg, read-out: BIOAVAILABILITY F; for AUC / Cmax / MRT / half-life: oral administration 100 mg/kg, N = 3. The format is in vivo.
Description: as §6
Another data set has as its target CDK7 CyclinH (Homo sapiens, UniProt P50613). Briefly: CDK inhibition assay (microfluidic LabChip, IC50 format). As to conditions: Table 4a. The format is biochemical.
[3] abbreviates: Table 3, purified enantiomers, read-out: CDK6 (E1/E2).
The mark [4] stands for this setting: Table 3, purified enantiomers, read-out: CDK9-T (E1/E2).
Setting [5] is: Table 3, purified enantiomers, read-out: CDK2-A (E1/E2).
Where [6] appears, read: CDK4 (E1/E2), Table 3, purified enantiomers.
Setting [7] is: Table 4a, read-out: CDK6 CyclinD3 IC50.
Setting [8] is: Table 4a, read-out: CDK9 CyclinT1 IC50.
Where [9] appears, read: Table 4a, read-out: CDK2 CyclinA IC50.
Where [10] appears, read: CDK4 CyclinD1 IC50, Table 4a, a second value in parentheses for some compounds.

Values joined by “and” are separate entries in the source; they are usually repeats but may differ in a detail not shown here. Identical values can stand only once. Like-named read-outs stand apart in the source and are kept apart here. Where only a bound is given, the exact number is not on record here.

CDK4-CYCLIND1, sequence (P11802 whole entry): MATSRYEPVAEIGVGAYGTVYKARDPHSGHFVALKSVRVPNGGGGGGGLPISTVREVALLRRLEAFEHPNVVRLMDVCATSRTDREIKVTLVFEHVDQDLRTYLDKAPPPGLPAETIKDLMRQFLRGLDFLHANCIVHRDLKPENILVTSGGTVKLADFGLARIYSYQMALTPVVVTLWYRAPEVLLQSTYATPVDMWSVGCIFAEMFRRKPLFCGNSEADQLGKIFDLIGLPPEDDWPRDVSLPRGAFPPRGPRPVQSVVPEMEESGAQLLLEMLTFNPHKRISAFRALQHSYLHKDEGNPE
CDK4-CYCLIND1, sequence (P24385 whole entry partner): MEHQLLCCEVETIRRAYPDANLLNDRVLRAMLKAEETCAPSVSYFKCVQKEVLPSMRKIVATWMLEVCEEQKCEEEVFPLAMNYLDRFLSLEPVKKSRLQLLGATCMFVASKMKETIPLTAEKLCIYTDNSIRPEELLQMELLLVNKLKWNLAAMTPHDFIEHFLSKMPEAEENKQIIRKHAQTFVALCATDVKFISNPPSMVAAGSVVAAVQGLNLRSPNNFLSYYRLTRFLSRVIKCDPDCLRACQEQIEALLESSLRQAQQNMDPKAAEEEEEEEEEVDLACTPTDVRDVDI
T1 sequence (Q00534 whole entry): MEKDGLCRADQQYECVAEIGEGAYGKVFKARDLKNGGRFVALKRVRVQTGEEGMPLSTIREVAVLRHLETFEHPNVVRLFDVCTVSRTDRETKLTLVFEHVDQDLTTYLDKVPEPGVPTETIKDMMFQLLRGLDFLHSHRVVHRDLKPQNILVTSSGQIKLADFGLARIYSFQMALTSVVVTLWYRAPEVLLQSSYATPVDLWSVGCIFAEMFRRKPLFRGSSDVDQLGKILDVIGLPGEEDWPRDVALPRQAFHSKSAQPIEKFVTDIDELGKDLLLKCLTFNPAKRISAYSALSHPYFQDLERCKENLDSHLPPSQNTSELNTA
T1 sequence (P30281 whole entry partner): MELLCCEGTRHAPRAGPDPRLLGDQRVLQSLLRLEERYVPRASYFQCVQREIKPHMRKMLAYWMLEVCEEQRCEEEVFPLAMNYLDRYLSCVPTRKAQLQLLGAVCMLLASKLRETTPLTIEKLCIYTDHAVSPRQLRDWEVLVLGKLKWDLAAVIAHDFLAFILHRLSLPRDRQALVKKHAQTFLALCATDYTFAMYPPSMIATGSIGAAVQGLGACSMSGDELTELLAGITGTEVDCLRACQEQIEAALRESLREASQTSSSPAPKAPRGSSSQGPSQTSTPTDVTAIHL
T2 sequence (P50750 whole entry): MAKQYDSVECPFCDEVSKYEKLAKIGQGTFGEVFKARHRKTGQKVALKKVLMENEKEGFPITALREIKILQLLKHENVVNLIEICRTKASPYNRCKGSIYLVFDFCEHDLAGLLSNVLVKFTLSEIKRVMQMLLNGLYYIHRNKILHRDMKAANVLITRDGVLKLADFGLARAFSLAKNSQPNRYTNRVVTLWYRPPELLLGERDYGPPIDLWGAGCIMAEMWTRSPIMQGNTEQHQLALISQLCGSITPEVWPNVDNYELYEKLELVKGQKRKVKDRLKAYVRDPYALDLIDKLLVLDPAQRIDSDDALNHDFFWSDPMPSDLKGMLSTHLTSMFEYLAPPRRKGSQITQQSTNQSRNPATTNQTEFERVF
T2 sequence (O60563 whole entry partner): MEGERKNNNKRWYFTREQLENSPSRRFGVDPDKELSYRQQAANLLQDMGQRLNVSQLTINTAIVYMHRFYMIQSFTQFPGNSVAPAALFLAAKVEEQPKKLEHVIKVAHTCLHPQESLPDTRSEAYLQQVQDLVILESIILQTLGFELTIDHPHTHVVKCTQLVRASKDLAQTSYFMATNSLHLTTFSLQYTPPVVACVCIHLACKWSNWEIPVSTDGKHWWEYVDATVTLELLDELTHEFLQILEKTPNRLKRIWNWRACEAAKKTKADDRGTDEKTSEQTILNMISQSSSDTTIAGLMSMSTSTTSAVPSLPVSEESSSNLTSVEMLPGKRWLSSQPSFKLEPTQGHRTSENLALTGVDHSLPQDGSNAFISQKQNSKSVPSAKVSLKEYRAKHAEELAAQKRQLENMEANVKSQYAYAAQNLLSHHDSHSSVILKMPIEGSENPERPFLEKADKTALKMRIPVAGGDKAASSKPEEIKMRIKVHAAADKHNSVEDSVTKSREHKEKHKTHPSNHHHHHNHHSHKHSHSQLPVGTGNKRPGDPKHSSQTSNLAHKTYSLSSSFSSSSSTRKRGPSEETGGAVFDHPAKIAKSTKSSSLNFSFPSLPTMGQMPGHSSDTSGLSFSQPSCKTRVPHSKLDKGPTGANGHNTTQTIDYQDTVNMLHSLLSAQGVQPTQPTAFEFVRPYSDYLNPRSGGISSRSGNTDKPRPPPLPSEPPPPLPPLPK
CDK7 CyclinH, sequence (P50613 whole entry): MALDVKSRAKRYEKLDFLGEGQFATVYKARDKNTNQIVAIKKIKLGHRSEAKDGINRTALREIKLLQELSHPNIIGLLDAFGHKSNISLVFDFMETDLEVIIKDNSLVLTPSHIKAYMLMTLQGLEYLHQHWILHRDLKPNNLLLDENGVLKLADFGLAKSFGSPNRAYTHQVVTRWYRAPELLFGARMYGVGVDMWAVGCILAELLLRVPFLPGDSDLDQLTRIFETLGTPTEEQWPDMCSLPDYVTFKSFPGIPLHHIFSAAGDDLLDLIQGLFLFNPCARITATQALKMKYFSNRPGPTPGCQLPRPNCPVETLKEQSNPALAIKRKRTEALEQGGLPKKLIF
CDK7 CyclinH, sequence (P51946 whole entry partner): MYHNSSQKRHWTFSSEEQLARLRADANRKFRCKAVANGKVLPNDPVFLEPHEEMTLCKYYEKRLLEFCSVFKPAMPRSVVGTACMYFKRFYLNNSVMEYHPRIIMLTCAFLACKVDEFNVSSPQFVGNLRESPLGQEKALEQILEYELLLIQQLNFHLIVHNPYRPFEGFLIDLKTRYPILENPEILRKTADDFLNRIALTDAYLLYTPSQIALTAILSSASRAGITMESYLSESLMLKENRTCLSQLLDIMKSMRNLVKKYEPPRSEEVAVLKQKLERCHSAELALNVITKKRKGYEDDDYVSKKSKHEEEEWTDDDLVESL
CDK7 CyclinH, sequence (P51948 whole entry partner): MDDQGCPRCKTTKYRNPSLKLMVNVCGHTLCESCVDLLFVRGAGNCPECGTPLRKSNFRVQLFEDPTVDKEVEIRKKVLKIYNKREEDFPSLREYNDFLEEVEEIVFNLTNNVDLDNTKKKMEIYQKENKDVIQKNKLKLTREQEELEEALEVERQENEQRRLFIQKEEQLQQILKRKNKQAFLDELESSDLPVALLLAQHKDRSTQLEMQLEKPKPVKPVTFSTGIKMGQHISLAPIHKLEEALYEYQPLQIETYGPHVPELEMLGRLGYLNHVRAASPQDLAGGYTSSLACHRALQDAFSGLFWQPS
Description for CDK4-CYCLIND1: Inhibition assays were performed using microfluidic LabChip 300 Drug Discovery System from Caliper Life Sciences. […] The assay has a total volume of 10 μL consisting of 5 μL of enzyme and buffer and 5 μL of substrate and buffer. The test compounds were diluted in 100% dimethylsulfoxide (DMSO) using 3-fold dilution steps. […] Compounds were tested in a single well for each dilution and the final concentration of DMSO was maintained at 1%.
The assay buffer contained 100 mM HEPES, pH 7.5, 0.01% Triton X-100, 0.1% bovine serum albumin (BSA), 5 mM MgCl2; 1 mM dithiothreitol (DTT), 10 μM sodium orthovanadate, and 10 μM β-glycerophosphate.
The assay was conducted by adding 5 μL of enzyme, adenosine triphosphate (ATP) and buffer to an assay plate. A 100 nL aliquot of the diluted compounds were added to the plate. The assay was initiated by the addition of 5 μL of phosphoenolpyruvate substrate (PEP) in buffer. […] The reaction was terminated by the addition of EDTA. The plates were analyzed using a Caliper LabChip 3000.
Additional inhibition assays were performed as described above.
The assays were conducted as described above for the racemates.

With `O=C1NCC[C@@]12Cc1cnc(Nc3ccc(N4CCNCC4)c(F)c3)nc1N(C1CCCC1)C2=O` [Example D50, (S)-8-cyclopentyl-2-((3-fluoro-4-(piperazin-1-yl)phenyl)amino)-5,8-dihydro-7H-spiro[pyrido[2,3-d]pyrimidine-6,3′-pyrrolidine]-2′,7-dione], the IC50 in the data set on MEXF WM-266-4 was 46 nM; in the data set on LXFL NCl-H1299, 187 nM; with MAXFTN MDA-MB-231 (ER−), 150 nM; in the data set with MAXFLB MCF7 (ER+), 80 nM; in the data set on LEXFAL MOLT-4 it was 101 nM; with MAXFTN ZR-75-1 (ER+) it was 23300 nM. The IC50 in the data set on LEXFAM MV4-11 is not above 10 nM; with LXFA A549 it was 338 nM; at CDK6-CYCLIND3 (setting [3]) it was 1.29 nM; on CDK9-CYCLINT1 (setting [4]), 4.37 nM; on CDK2-CYCLINE, 62.4 nM; in the data set on all cell lines tested it was 173 nM. In addition, the IC50 on CDK2-CYCLINA (setting [5]) amounted to 29.1 nM; at CDK4-CYCLIND1 (setting [6]) it was 0.78 nM.

On to `CN1CCN(c2ccc(Nc3ncc4c(n3)N(C3CCCC3)C(=O)[C@]3(CCNC3=O)C4)cc2F)CC1` [Example D52, (S)-8-cyclopentyl-2-((3-fluoro-4-(4-methylpiperazin-1-yl)phenyl)amino)-5,8-dihydro-7H-spiro[pyrido[2,3-d]pyrimidine-6,3′-pyrrolidine]-2′,7-dione], for which the IC50 was 509 nM in the data set on MEXF WM-266-4; 151 nM in the data set with LXFL NCl-H1299; 318 nM with MAXFTN MDA-MB-231 (ER−); 122 nM in the data set on MAXFLB MCF7 (ER+); 925 nM in the data set on MAXFTN ZR-75-1 (ER+); not above 10 nM in the data set with LEXFAM MV4-11. Also, the IC50 was determined as 257 nM in the data set on LXFA A549; 1.94 nM on CDK6-CYCLIND3 (setting [3]); 5.75 nM at CDK9-CYCLINT1 (setting [4]); 101 nM on CDK2-CYCLINE; 184 nM with all cell lines tested; 53.1 nM on CDK2-CYCLINA (setting [5]). The IC50 on CDK4-CYCLIND1 (setting [6]) is 0.904 nM. The maximum concentration (Cmax) in data set [1] came to 6360 ng/mL; in [2], 4350 ng/mL. In data set [1], this molecule had a clearance of 19.3 mL/min/kg. The half-life was 4.45 h in [1] and 7.1 h in [2]. Besides, the bioavailability in data set [2] was 43.9%. Also, in [2], the AUC was 37700 ng·h/mL. The molecule further returned an MRT in [2] of 5.48 h.

Take `CC(C)N1CCN(c2ccc(Nc3ncc4c(n3)N(C3CCCC3)C(=O)[C@]3(CCNC3=O)C4)cc2)CC1` [Example D145, (S)-8-cyclopentyl-2-((4-(4-isopropylpiperazin-1-yl)phenyl)amino)-5,8-dihydro-7H-spiro[pyrido[2,3-d]pyrimidine-6,3′-pyrrolidine]-2′,7-dione]: the IC50 in the data set with MEXF WM-266-4 was 47 nM; with LXFL NCl-H1299, 108 nM; in the data set with MAXFTN MDA-MB-231 (ER−), 300 nM; in the data set on MAXFLB MCF7 (ER+), 88 nM; with LEXFAL MOLT-4, 84 nM; in the data set with MAXFTN ZR-75-1 (ER+), not below 100000 nM. Moreover, the IC50 in the data set with LEXFAM MV4-11 is not above 10 nM; in the data set on LXFA A549 it was 148 nM; on CDK6-CYCLIND3 (setting [7]), 1.65 nM; on CDK9-CYCLINT1 (setting [8]), 5.02 nM; in the data set with all cell lines tested, 189 nM; on CDK7 CyclinH it was 153 nM. Moreover, the IC50 on CDK2-CYCLINA (setting [9]) amounted to 21.7 nM; on CDK4-CYCLIND1 (setting [10]) it was 0.784 nM. Besides, the Cmax in data set [1] stood at 7730 ng/mL; in data set [2], 4470 ng/mL. In data set [1], this molecule gave a clearance of 35.2 mL/min/kg. Further, the half-life is 1.93 h in [1] and 5.6 h in data set [2]. For the same molecule, the bioavailability in [2] was determined as 43.8%. Further, in data set [2], the AUC was found to be 21500 ng·h/mL. The mean residence time MRT in data set [2] is 4.37 h.

Turning to `CN(C)[C@@H]1CCN(c2ccc(Nc3ncc4c(n3)N(C3CCCC3)C(=O)[C@]3(CCNC3=O)C4)cc2F)C1` [Example D176, (S)-8-cyclopentyl-2-((4-((R)-3-(dimethylamino)pyrrolidin-1-yl)-3-fluorophenyl)amino)-5,8-dihydro-7H-spiro[pyrido[2,3-d]pyrimidine-6,3′-pyrrolidine]-2′,7-dione], the IC50 worked out at 548 nM with MEXF WM-266-4; 229 nM with LXFL NCl-H1299; 172 nM with MAXFTN MDA-MB-231 (ER−); 62 nM with MAXFLB MCF7 (ER+); 97 nM in the data set on LEXFAL MOLT-4; 648 nM with MAXFTN ZR-75-1 (ER+). For the same molecule, the IC50 was found to be 28 nM in the data set on LEXFAM MV4-11; 440 nM in the data set with LXFA A549; 2.07 nM on CDK6-CYCLIND3 (setting [7]); 2.73 nM on CDK9-CYCLINT1 (setting [8]); 179 nM with all cell lines tested; 126 nM against CDK7 CyclinH. Moreover, the IC50 at CDK2-CYCLINA (setting [9]) was 33.3 nM; on CDK4-CYCLIND1 (setting [10]), 1.12 nM and 0.64 nM.
